Measurements published in ChEMBL document CHEMBL1909294, “Translating clinical findings into knowledge in drug safety evaluation--drug induced liver injury prediction system (DILIps)” (PLoS Comput Biol, 2011).

Assays:
Hepatotoxicity [1] = test system: Hepatotoxicity;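 for HepSE bilirubinemia: bilirubinemia hepatic side effect score drawn from the DILIps training data, a prediction system for drug-induced liver injury; call rule not given here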;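 for HepSE cholecystitis: Cholecystitis-related hepatic side effect score drawn from the DILIps (drug-induced liver injury prediction) training data set; call rule not given here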;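 for HepSE elevated liver function tests: hepatic side effect score for raised liver function tests, as recorded in the DILIps training set used for predicting drug-induced liver injury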; for HepSE hepatic failure: call rule not given here;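 for HepSE jaundice: Jaundice-related hepatic side-effect score drawn from the training data of the DILIps (drug-induced liver injury prediction system); call rule not given here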;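 for HepSE liver fatty: hepatic side effect score for fatty liver, taken from the DILIps training set for predicting drug-induced liver injury; call rule not given here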;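 for HepSE liver function tests abnormal: hepatic side effect score taken from the DILIps (drug-induced liver injury prediction system) training data, here covering abnormal liver function test findings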
Hepatotoxicity [2] = test system: Hepatotoxicity; remark: listed apart in the source;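 for HepSE bilirubinemia: bilirubinemia hepatic side effect score drawn from the DILIps training data, a prediction system for drug-induced liver injury; call rule not given here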;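 for HepSE cholecystitis: Cholecystitis-related hepatic side effect score drawn from the DILIps (drug-induced liver injury prediction) training data set; call rule not given here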;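 for HepSE elevated liver function tests: hepatic side effect score for raised liver function tests, as recorded in the DILIps training set used for predicting drug-induced liver injury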; for HepSE hepatic failure: call rule not given here;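 for HepSE jaundice: Jaundice-related hepatic side-effect score drawn from the training data of the DILIps (drug-induced liver injury prediction system); call rule not given here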;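 for HepSE liver fatty: hepatic side effect score for fatty liver, taken from the DILIps training set for predicting drug-induced liver injury; call rule not given here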
Hepatotoxicity [3] = test system: Hepatotoxicity; remark: listed apart in the source;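 for HepSE bilirubinemia: bilirubinemia hepatic side effect score drawn from the DILIps training data, a prediction system for drug-induced liver injury; call rule not given here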;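 for HepSE cholecystitis: Cholecystitis-related hepatic side effect score drawn from the DILIps (drug-induced liver injury prediction) training data set; call rule not given here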;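 for HepSE elevated liver function tests: hepatic side effect score for raised liver function tests, as recorded in the DILIps training set used for predicting drug-induced liver injury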; for HepSE hepatic failure: call rule not given here;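 for HepSE jaundice: Jaundice-related hepatic side-effect score drawn from the training data of the DILIps (drug-induced liver injury prediction system); call rule not given here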;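 for HepSE liver fatty: hepatic side effect score for fatty liver, taken from the DILIps training set for predicting drug-induced liver injury; call rule not given here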
Hepatotoxicity [4] = test system: Hepatotoxicity; remark: listed apart in the source;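 for HepSE bilirubinemia: bilirubinemia hepatic side effect score drawn from the DILIps training data, a prediction system for drug-induced liver injury; call rule not given here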;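 for HepSE cholecystitis: Cholecystitis-related hepatic side effect score drawn from the DILIps (drug-induced liver injury prediction) training data set; call rule not given here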;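 for HepSE elevated liver function tests: hepatic side effect score for raised liver function tests, as recorded in the DILIps training set used for predicting drug-induced liver injury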; for HepSE hepatic failure: call rule not given here;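 for HepSE jaundice: Jaundice-related hepatic side-effect score drawn from the training data of the DILIps (drug-induced liver injury prediction system); call rule not given here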;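 for HepSE liver fatty: hepatic side effect score for fatty liver, taken from the DILIps training set for predicting drug-induced liver injury; call rule not given here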
Hepatotoxicity [5] = test system: Hepatotoxicity; remark: listed apart in the source; for HepSE hepatic failure: call rule not given here
Hepatotoxicity [6] = test system: Hepatotoxicity; remark: listed apart in the source; for HepSE hepatic failure: call rule not given here
Hepatotoxicity [7] = test system: Hepatotoxicity; remark: listed apart in the source
Hepatotoxicity [8] = test system: Hepatotoxicity; remark: listed apart in the source
Hepatotoxicity [9] = test system: Hepatotoxicity; remark: listed apart in the source
Hepatotoxicity [10] = test system: Hepatotoxicity; remark: listed apart in the source
Hepatotoxicity [11] = test system: Hepatotoxicity; remark: listed apart in the source
Hepatotoxicity [12] = test system: Hepatotoxicity; remark: listed apart in the source
Hepatotoxicity [13] = test system: Hepatotoxicity; remark: listed apart in the source
Hepatotoxicity [14] = test system: Hepatotoxicity; remark: listed apart in the source

C[C@@H]1O[C@@H]1P(=O)(O)O [FOSFOMYCIN]
0: HepSE_hepatic failure (Hepatotoxicity [1]) | HepSE_liver fatty (Hepatotoxicity [2]) | HepSE_cholelithiasis (Hepatotoxicity [3]) | HepSE_bilirubinemia (Hepatotoxicity [5]) | HepSE_cholecystitis (Hepatotoxicity [7]) | HepSE_elevated liver function tests (Hepatotoxicity [8]) | HepSE_liver function tests abnormal (Hepatotoxicity [9]) | HepSE_hepatitis (Hepatotoxicity [10]) | HepSE_hepatomegaly (Hepatotoxicity [11]) | HepSE_cirrhosis (Hepatotoxicity [12]) | HepSE_liver disease (Hepatotoxicity [13])
1: HepSE_jaundice (Hepatotoxicity [4]) | HepSE_hepatic necrosis (Hepatotoxicity [6])
2: HepSE_Combined Scores (Hepatotoxicity [14])

CCOC(=O)[C@H](CCc1ccccc1)N[C@@H](C)C(=O)N1[C@H](C(=O)O)C[C@@H]2CCC[C@@H]21
0: HepSE_liver fatty (Hepatotoxicity [2]) | HepSE_cholelithiasis (Hepatotoxicity [3]) | HepSE_bilirubinemia (Hepatotoxicity [5]) | HepSE_cholecystitis (Hepatotoxicity [7]) | HepSE_elevated liver function tests (Hepatotoxicity [8]) | HepSE_liver function tests abnormal (Hepatotoxicity [9]) | HepSE_hepatomegaly (Hepatotoxicity [11]) | HepSE_cirrhosis (Hepatotoxicity [12]) | HepSE_liver disease (Hepatotoxicity [13])
1: HepSE_hepatic failure (Hepatotoxicity [1]) | HepSE_jaundice (Hepatotoxicity [4]) | HepSE_hepatic necrosis (Hepatotoxicity [6]) | HepSE_hepatitis (Hepatotoxicity [10])
4: HepSE_Combined Scores (Hepatotoxicity [14])

CC(=O)NC[C@H]1CN(c2ccc(N3CCOCC3)c(F)c2)C(=O)O1 [LINEZOLID]
2: HepSE_Combined Scores (Hepatotoxicity [14])
0: HepSE_hepatic failure (Hepatotoxicity [1]) | HepSE_liver fatty (Hepatotoxicity [2]) | HepSE_cholelithiasis (Hepatotoxicity [3]) | HepSE_bilirubinemia (Hepatotoxicity [5]) | HepSE_hepatic necrosis (Hepatotoxicity [6]) | HepSE_cholecystitis (Hepatotoxicity [7]) | HepSE_elevated liver function tests (Hepatotoxicity [8]) | HepSE_hepatitis (Hepatotoxicity [10]) | HepSE_hepatomegaly (Hepatotoxicity [11]) | HepSE_cirrhosis (Hepatotoxicity [12]) | HepSE_liver disease (Hepatotoxicity [13])
1: HepSE_jaundice (Hepatotoxicity [4]) | HepSE_liver function tests abnormal (Hepatotoxicity [9])

COC(=O)C1=C(C)NC(C)=C(C(=O)OC)C1c1ccccc1[N+](=O)[O-] [NIFEDIPINE]
0: HepSE_hepatic failure (Hepatotoxicity [1]) | HepSE_liver fatty (Hepatotoxicity [2]) | HepSE_cholelithiasis (Hepatotoxicity [3]) | HepSE_bilirubinemia (Hepatotoxicity [5]) | HepSE_hepatic necrosis (Hepatotoxicity [6]) | HepSE_cholecystitis (Hepatotoxicity [7]) | HepSE_elevated liver function tests (Hepatotoxicity [8]) | HepSE_liver function tests abnormal (Hepatotoxicity [9]) | HepSE_hepatomegaly (Hepatotoxicity [11]) | HepSE_cirrhosis (Hepatotoxicity [12]) | HepSE_liver disease (Hepatotoxicity [13])
1: HepSE_jaundice (Hepatotoxicity [4]) | HepSE_hepatitis (Hepatotoxicity [10])
2: HepSE_Combined Scores (Hepatotoxicity [14])

NC(=O)CC[C@@H]1NC(=O)[C@H](Cc2ccccc2)NC(=O)[C@H](Cc2ccc(O)cc2)NC(=O)CCSSC[C@@H](C(=O)N2CCC[C@H]2C(=O)N[C@H](CCCN=C(N)N)C(=O)NCC(N)=O)NC(=O)[C@H](CC(N)=O)NC1=O [DESMOPRESSIN]
0: HepSE_hepatic failure (Hepatotoxicity [1]) | HepSE_liver fatty (Hepatotoxicity [2]) | HepSE_cholelithiasis (Hepatotoxicity [3]) | HepSE_jaundice (Hepatotoxicity [4]) | HepSE_bilirubinemia (Hepatotoxicity [5]) | HepSE_hepatic necrosis (Hepatotoxicity [6]) | HepSE_cholecystitis (Hepatotoxicity [7]) | HepSE_elevated liver function tests (Hepatotoxicity [8]) | HepSE_liver function tests abnormal (Hepatotoxicity [9]) | HepSE_hepatitis (Hepatotoxicity [10]) | HepSE_hepatomegaly (Hepatotoxicity [11]) | HepSE_cirrhosis (Hepatotoxicity [12]) | HepSE_liver disease (Hepatotoxicity [13]) | HepSE_Combined Scores (Hepatotoxicity [14])

OC(Cn1cncn1)(Cn1cncn1)c1ccc(F)cc1F [FLUCONAZOLE]
4: HepSE_Combined Scores (Hepatotoxicity [14]; Liver)
0: HepSE_liver fatty (Hepatotoxicity [2]; Liver) | HepSE_cholelithiasis (Hepatotoxicity [3]; Liver) | HepSE_bilirubinemia (Hepatotoxicity [5]; Liver) | HepSE_cholecystitis (Hepatotoxicity [7]; Liver) | HepSE_elevated liver function tests (Hepatotoxicity [8]; Liver) | HepSE_liver function tests abnormal (Hepatotoxicity [9]; Liver) | HepSE_hepatomegaly (Hepatotoxicity [11]; Liver) | HepSE_cirrhosis (Hepatotoxicity [12]; Liver) | HepSE_liver disease (Hepatotoxicity [13]; Liver)
1: HepSE_hepatic failure (Hepatotoxicity [1]; Liver) | HepSE_jaundice (Hepatotoxicity [4]; Liver) | HepSE_hepatic necrosis (Hepatotoxicity [6]; Liver) | HepSE_hepatitis (Hepatotoxicity [10]; Liver)

CCN1CC(CCN2CCOCC2)C(c2ccccc2)(c2ccccc2)C1=O (configuration not stated) [DOXAPRAM]
0: HepSE_hepatic failure (Hepatotoxicity [1]) | HepSE_liver fatty (Hepatotoxicity [2]) | HepSE_cholelithiasis (Hepatotoxicity [3]) | HepSE_jaundice (Hepatotoxicity [4]) | HepSE_bilirubinemia (Hepatotoxicity [5]) | HepSE_hepatic necrosis (Hepatotoxicity [6]) | HepSE_cholecystitis (Hepatotoxicity [7]) | HepSE_elevated liver function tests (Hepatotoxicity [8]) | HepSE_liver function tests abnormal (Hepatotoxicity [9]) | HepSE_hepatitis (Hepatotoxicity [10]) | HepSE_hepatomegaly (Hepatotoxicity [11]) | HepSE_cirrhosis (Hepatotoxicity [12]) | HepSE_liver disease (Hepatotoxicity [13]) | HepSE_Combined Scores (Hepatotoxicity [14])

Nc1cc(-c2ccncc2)c[nH]c1=O [INAMRINONE]
1: HepSE_jaundice (Hepatotoxicity [4]) | HepSE_Combined Scores (Hepatotoxicity [14])
0: HepSE_hepatic failure (Hepatotoxicity [1]) | HepSE_liver fatty (Hepatotoxicity [2]) | HepSE_cholelithiasis (Hepatotoxicity [3]) | HepSE_bilirubinemia (Hepatotoxicity [5]) | HepSE_hepatic necrosis (Hepatotoxicity [6]) | HepSE_cholecystitis (Hepatotoxicity [7]) | HepSE_elevated liver function tests (Hepatotoxicity [8]) | HepSE_liver function tests abnormal (Hepatotoxicity [9]) | HepSE_hepatitis (Hepatotoxicity [10]) | HepSE_hepatomegaly (Hepatotoxicity [11]) | HepSE_cirrhosis (Hepatotoxicity [12]) | HepSE_liver disease (Hepatotoxicity [13])

Nc1ccc(C(=O)NCC(=O)O)cc1 [AMINOHIPPURIC ACID]
0: HepSE_hepatic failure (Hepatotoxicity [1]) | HepSE_liver fatty (Hepatotoxicity [2]) | HepSE_cholelithiasis (Hepatotoxicity [3]) | HepSE_jaundice (Hepatotoxicity [4]) | HepSE_bilirubinemia (Hepatotoxicity [5]) | HepSE_hepatic necrosis (Hepatotoxicity [6]) | HepSE_cholecystitis (Hepatotoxicity [7]) | HepSE_elevated liver function tests (Hepatotoxicity [8]) | HepSE_liver function tests abnormal (Hepatotoxicity [9]) | HepSE_hepatitis (Hepatotoxicity [10]) | HepSE_hepatomegaly (Hepatotoxicity [11]) | HepSE_cirrhosis (Hepatotoxicity [12]) | HepSE_liver disease (Hepatotoxicity [13]) | HepSE_Combined Scores (Hepatotoxicity [14])

Cn1nnc2c(C(N)=O)ncn2c1=O [TEMOZOLOMIDE]
0: HepSE_hepatic failure (Hepatotoxicity [1]) | HepSE_liver fatty (Hepatotoxicity [2]) | HepSE_cholelithiasis (Hepatotoxicity [3]) | HepSE_jaundice (Hepatotoxicity [4]) | HepSE_bilirubinemia (Hepatotoxicity [5]) | HepSE_hepatic necrosis (Hepatotoxicity [6]) | HepSE_cholecystitis (Hepatotoxicity [7]) | HepSE_elevated liver function tests (Hepatotoxicity [8]) | HepSE_liver function tests abnormal (Hepatotoxicity [9]) | HepSE_hepatitis (Hepatotoxicity [10]) | HepSE_hepatomegaly (Hepatotoxicity [11]) | HepSE_cirrhosis (Hepatotoxicity [12]) | HepSE_liver disease (Hepatotoxicity [13]) | HepSE_Combined Scores (Hepatotoxicity [14])

COC(c1ccccc1)(c1ccccc1)[C@H](Oc1nc(C)cc(C)n1)C(=O)O [AMBRISENTAN]
0: HepSE_hepatic failure (Hepatotoxicity [1]) | HepSE_liver fatty (Hepatotoxicity [2]) | HepSE_cholelithiasis (Hepatotoxicity [3]) | HepSE_jaundice (Hepatotoxicity [4]) | HepSE_bilirubinemia (Hepatotoxicity [5]) | HepSE_hepatic necrosis (Hepatotoxicity [6]) | HepSE_cholecystitis (Hepatotoxicity [7]) | HepSE_elevated liver function tests (Hepatotoxicity [8]) | HepSE_liver function tests abnormal (Hepatotoxicity [9]) | HepSE_hepatitis (Hepatotoxicity [10]) | HepSE_hepatomegaly (Hepatotoxicity [11]) | HepSE_cirrhosis (Hepatotoxicity [12]) | HepSE_liver disease (Hepatotoxicity [13]) | HepSE_Combined Scores (Hepatotoxicity [14])

N#Cc1ccc(C(c2ccc(C#N)cc2)n2cncn2)cc1 [LETROZOLE]
0: HepSE_hepatic failure (Hepatotoxicity [1]) | HepSE_liver fatty (Hepatotoxicity [2]) | HepSE_cholelithiasis (Hepatotoxicity [3]) | HepSE_jaundice (Hepatotoxicity [4]) | HepSE_bilirubinemia (Hepatotoxicity [5]) | HepSE_hepatic necrosis (Hepatotoxicity [6]) | HepSE_cholecystitis (Hepatotoxicity [7]) | HepSE_elevated liver function tests (Hepatotoxicity [8]) | HepSE_liver function tests abnormal (Hepatotoxicity [9]) | HepSE_hepatitis (Hepatotoxicity [10]) | HepSE_hepatomegaly (Hepatotoxicity [11]) | HepSE_cirrhosis (Hepatotoxicity [12]) | HepSE_liver disease (Hepatotoxicity [13]) | HepSE_Combined Scores (Hepatotoxicity [14])

CC(C)CN(C[C@@H](OP(=O)(O)O)[C@H](Cc1ccccc1)NC(=O)O[C@H]1CCOC1)S(=O)(=O)c1ccc(N)cc1 [FOSAMPRENAVIR]
0: HepSE_hepatic failure (Hepatotoxicity [1]) | HepSE_liver fatty (Hepatotoxicity [2]) | HepSE_cholelithiasis (Hepatotoxicity [3]) | HepSE_jaundice (Hepatotoxicity [4]) | HepSE_bilirubinemia (Hepatotoxicity [5]) | HepSE_hepatic necrosis (Hepatotoxicity [6]) | HepSE_cholecystitis (Hepatotoxicity [7]) | HepSE_elevated liver function tests (Hepatotoxicity [8]) | HepSE_liver function tests abnormal (Hepatotoxicity [9]) | HepSE_hepatitis (Hepatotoxicity [10]) | HepSE_hepatomegaly (Hepatotoxicity [11]) | HepSE_cirrhosis (Hepatotoxicity [12]) | HepSE_liver disease (Hepatotoxicity [13]) | HepSE_Combined Scores (Hepatotoxicity [14])
